Species: Rattus norvegicus
Test: Open TG-GATES - Regimen: Daily Repeat
Format: toxicity, organism-based, Sprague-Dawley
Set-up: regimen Daily Repeat, gender Male, age 6 weeks
Conditions: in vivo, po, route gavage; for APTT / Bas / Eos / Fbg / Hb / Ht / Lym / MCH / MCHC / MCV / Mono / Neu / PT / Plat / RBC / Ret / WBC: tissue Blood; for KIDNEY_L / KIDNEY_R / KIDNEY_TOTAL: tissue Kidney; for LIVER: tissue Liver; for A/G / ALP / ALT / AST / BUN / CRE / Ca / Cl / DBIL / GLC / IP / K / LDH / Na / PL / RALB / TBIL / TC / TG / TP / gamma-GTP: tissue Plasma
[1] = 0 mg/kg, 72 h, dose level Control, time 3 day
[2] = 0 mg/kg, […], dose level Control, time 7 day
[3] = 0 mg/kg, […], dose level Control, time 14 day
[4] = 0 mg/kg, […], dose level Control, time 28 day
[5] = 100 mg/kg, 72 h, dose level Low, time 3 day
[6] = 100 mg/kg, […], dose level Low, time 7 day
[7] = 100 mg/kg, […], dose level Low, time 14 day
[8] = 100 mg/kg, […], dose level Low, time 28 day

CC(S)C(=O)NCC(=O)O (centres undefined) [TIOPRONIN]
TERMINAL_BW [1]: 222.4 g
APTT [1]: 22.6 s
Bas [1]: 0%
Eos [1]: 1%
Fbg [1]: 300.2 mg/dL
Hb [1]: 13.5 g/dL
Ht [1]: 40.8%
Lym [1]: 81.6%
MCH [1]: 20.9 pg
MCHC [1]: 33.1%
MCV [1]: 63 fL
Mono [1]: 2.6%
Neu [1]: 14.2%
PT [1]: 15.7 s
Plat [1]: 112.4 x10_4/uL
RBC [1]: 647.2 x10_4/ul
Ret [1]: 6.8%
WBC [1]: 142.5 x10_2/uL
KIDNEY_L [1]: 1 g
KIDNEY_R [1]: 1 g
KIDNEY_TOTAL [1]: 2 g
LIVER [1]: 10.5 g
A/G [1]: 1.1
ALP [1]: 1395.4 IU/L
ALT [1]: 46.2 IU/L
AST [1]: 73.8 IU/L
BUN [1]: 17.4 mg/dL
CRE [1]: 0.2 mg/dL
Ca [1]: 10.5 mg/dL
Cl [1]: 106 meq/L
DBIL [1]: 0 mg/dL
GLC [1]: 202 mg/dL
IP [1]: 7.2 mg/dL
K [1]: 4.3 meq/L
LDH [1]: 188 IU/L
Na [1]: 140.8 meq/L
PL [1]: 137.6 mg/dL
RALB [1]: 2.9 g/dL
TBIL [1]: 0.004 mg/dL
TC [1]: 75 mg/dL
TG [1]: 86.6 mg/dL
TP [1]: 5.5 g/dL
gamma-GTP [1]: 1.6 IU/L
TERMINAL_BW [2]: 250.2 g
TERMINAL_BW [3]: 315.5 g
TERMINAL_BW [4]: 385.3 g
APTT [2]: 21.4 s
Bas [2]: 0%
Eos [2]: 0.8%
Fbg [2]: 311.2 mg/dL
Hb [2]: 13.8 g/dL
Ht [2]: 40.6%
Lym [2]: 83%
MCH [2]: 20.7 pg
MCHC [2]: 33.9%
MCV [2]: 61 fL
Mono [2]: 2%
Neu [2]: 13.4%
PT [2]: 15.4 s
Plat [2]: 118.9 x10_4/uL
RBC [2]: 667 x10_4/ul
Ret [2]: 5.6%
WBC [2]: 124.9 x10_2/uL
APTT [3]: 22.9 s
Bas [3]: 0%
Eos [3]: 1%
Fbg [3]: 299.2 mg/dL
Hb [3]: 14.1 g/dL
Ht [3]: 40.4%
Lym [3]: 82.6%
MCH [3]: 20.5 pg
MCHC [3]: 34.8%
MCV [3]: 58.9 fL
Mono [3]: 2.2%
Neu [3]: 14%
PT [3]: 15.6 s
Plat [3]: 118.7 x10_4/uL
RBC [3]: 686.8 x10_4/ul
Ret [3]: 5.3%
WBC [3]: 128.8 x10_2/uL
APTT [4]: 24.5 s
Bas [4]: 0%
Eos [4]: 1%
Fbg [4]: 305.6 mg/dL
Hb [4]: 15.3 g/dL
Ht [4]: 43.2%
Lym [4]: 81.8%
MCH [4]: 19.6 pg
MCHC [4]: 35.3%
MCV [4]: 55.5 fL
Mono [4]: 1.8%
Neu [4]: 14.2%
PT [4]: 16 s
Plat [4]: 91.2 x10_4/uL
RBC [4]: 778.2 x10_4/ul
Ret [4]: 2.8%
WBC [4]: 114.1 x10_2/uL
KIDNEY_L [2]: 1.1 g
KIDNEY_R [2]: 1.1 g
KIDNEY_TOTAL [2]: 2.2 g
KIDNEY_L [3]: 1.2 g
KIDNEY_R [3]: 1.2 g
KIDNEY_TOTAL [3]: 2.4 g
KIDNEY_L [4]: 1.3 g
KIDNEY_R [4]: 1.4 g
KIDNEY_TOTAL [4]: 2.7 g
LIVER [2]: 11.5 g
LIVER [3]: 13.7 g
LIVER [4]: 15.9 g
A/G [2]: 1.2
ALP [2]: 1704.2 IU/L
ALT [2]: 37.4 IU/L
AST [2]: 68.6 IU/L
BUN [2]: 18.8 mg/dL
CRE [2]: 0.2 mg/dL
Ca [2]: 10.7 mg/dL
Cl [2]: 107.2 meq/L
DBIL [2]: 0 mg/dL
GLC [2]: 191.8 mg/dL
IP [2]: 7.1 mg/dL
K [2]: 4.5 meq/L
LDH [2]: 146.4 IU/L
Na [2]: 141.6 meq/L
PL [2]: 158.6 mg/dL
RALB [2]: 3 g/dL
TBIL [2]: 0.004 mg/dL
TC [2]: 83.2 mg/dL
TG [2]: 107.2 mg/dL
TP [2]: 5.4 g/dL
gamma-GTP [2]: 1.8 IU/L
A/G [3]: 1.3
ALP [3]: 1485.6 IU/L
ALT [3]: 37 IU/L
AST [3]: 63.4 IU/L
BUN [3]: 19 mg/dL
CRE [3]: 0.2 mg/dL
Ca [3]: 10.3 mg/dL
Cl [3]: 105 meq/L
DBIL [3]: 0 mg/dL
GLC [3]: 205.8 mg/dL
IP [3]: 6.9 mg/dL
K [3]: 4.5 meq/L
LDH [3]: 157.8 IU/L
Na [3]: 139.2 meq/L
PL [3]: 135.6 mg/dL
RALB [3]: 3.1 g/dL
TBIL [3]: 0.006 mg/dL
TC [3]: 63.6 mg/dL
TG [3]: 135.6 mg/dL
TP [3]: 5.6 g/dL
gamma-GTP [3]: 2.6 IU/L
A/G [4]: 1.2
ALP [4]: 1102.4 IU/L
ALT [4]: 35 IU/L
AST [4]: 61.4 IU/L
BUN [4]: 19.2 mg/dL
CRE [4]: 0.2 mg/dL
Ca [4]: 10.8 mg/dL
Cl [4]: 106.8 meq/L
DBIL [4]: 0 mg/dL
GLC [4]: 202.6 mg/dL
IP [4]: 6.7 mg/dL
K [4]: 4.1 meq/L
LDH [4]: 152.6 IU/L
Na [4]: 143.2 meq/L
PL [4]: 151.4 mg/dL
RALB [4]: 3.3 g/dL
TBIL [4]: 0.01 mg/dL
TC [4]: 78.2 mg/dL
TG [4]: 135.4 mg/dL
TP [4]: 5.9 g/dL
gamma-GTP [4]: 2 IU/L
TERMINAL_BW [5]: 228.4 g
APTT [5]: 22 s
Bas [5]: 0%
Eos [5]: 1%
Fbg [5]: 299.8 mg/dL
Hb [5]: 13 g/dL
Ht [5]: 39.1%
Lym [5]: 77.8%
MCH [5]: 19.9 pg
MCHC [5]: 33.2%
MCV [5]: 60.1 fL
Mono [5]: 2.8%
Neu [5]: 17.8%
PT [5]: 15.6 s
Plat [5]: 120.9 x10_4/uL
RBC [5]: 652 x10_4/ul
Ret [5]: 6.7%
WBC [5]: 105.6 x10_2/uL
KIDNEY_L [5]: 1 g
KIDNEY_R [5]: 1 g
KIDNEY_TOTAL [5]: 2 g
LIVER [5]: 10.8 g
A/G [5]: 1.2
ALP [5]: 1580 IU/L
ALT [5]: 43.6 IU/L
AST [5]: 73.6 IU/L
BUN [5]: 17 mg/dL
CRE [5]: 0.2 mg/dL
Ca [5]: 10.6 mg/dL
Cl [5]: 106.4 meq/L
DBIL [5]: 0 mg/dL
GLC [5]: 189.4 mg/dL
IP [5]: 7.4 mg/dL
K [5]: 4.4 meq/L
LDH [5]: 165.2 IU/L
Na [5]: 140.8 meq/L
PL [5]: 139.8 mg/dL
RALB [5]: 3.1 g/dL
TBIL [5]: 0.008 mg/dL
TC [5]: 76.6 mg/dL
TG [5]: 107.2 mg/dL
TP [5]: 5.6 g/dL
gamma-GTP [5]: 1.6 IU/L
TERMINAL_BW [6]: 255.1 g
TERMINAL_BW [7]: 321.9 g
TERMINAL_BW [8]: 376.7 g
APTT [6]: 22.4 s
Bas [6]: 0%
Eos [6]: 0.8%
Fbg [6]: 305.8 mg/dL
Hb [6]: 13.5 g/dL
Ht [6]: 39.7%
Lym [6]: 79.2%
MCH [6]: 20.9 pg
MCHC [6]: 34.1%
MCV [6]: 61.4 fL
Mono [6]: 2.4%
Neu [6]: 16.4%
PT [6]: 15.8 s
Plat [6]: 125.6 x10_4/uL
RBC [6]: 647 x10_4/ul
Ret [6]: 6.1%
WBC [6]: 109.7 x10_2/uL
APTT [7]: 24.5 s
Bas [7]: 0%
Eos [7]: 1%
Fbg [7]: 297 mg/dL
Hb [7]: 14.3 g/dL
Ht [7]: 41.1%
Lym [7]: 80.2%
MCH [7]: 20.8 pg
MCHC [7]: 34.8%
MCV [7]: 59.9 fL
Mono [7]: 2.4%
Neu [7]: 15.4%
PT [7]: 15.6 s
Plat [7]: 116.6 x10_4/uL
RBC [7]: 686.2 x10_4/ul
Ret [7]: 5.6%
WBC [7]: 147.7 x10_2/uL
APTT [8]: 25.2 s
Bas [8]: 0%
Eos [8]: 1.2%
Fbg [8]: 325.8 mg/dL
Hb [8]: 15.2 g/dL
Ht [8]: 43.1%
Lym [8]: 80.6%
MCH [8]: 19.6 pg
MCHC [8]: 35.2%
MCV [8]: 55.6 fL
Mono [8]: 2.6%
Neu [8]: 14.6%
PT [8]: 15.9 s
Plat [8]: 94 x10_4/uL
RBC [8]: 775.4 x10_4/ul
Ret [8]: 2.8%
WBC [8]: 122.4 x10_2/uL
KIDNEY_L [6]: 1.1 g
KIDNEY_R [6]: 1.1 g
KIDNEY_TOTAL [6]: 2.2 g
KIDNEY_L [7]: 1.2 g
KIDNEY_R [7]: 1.3 g
KIDNEY_TOTAL [7]: 2.5 g
KIDNEY_L [8]: 1.3 g
KIDNEY_R [8]: 1.4 g
KIDNEY_TOTAL [8]: 2.7 g
LIVER [6]: 11.2 g
LIVER [7]: 14.1 g
LIVER [8]: 15.3 g
A/G [6]: 1.1
ALP [6]: 1665.2 IU/L
ALT [6]: 37.2 IU/L
AST [6]: 66.8 IU/L
BUN [6]: 16.8 mg/dL
CRE [6]: 0.1 mg/dL
Ca [6]: 10.6 mg/dL
Cl [6]: 107.4 meq/L
DBIL [6]: 0 mg/dL
GLC [6]: 189.8 mg/dL
IP [6]: 7.3 mg/dL
K [6]: 4.2 meq/L
LDH [6]: 146.2 IU/L
Na [6]: 141.8 meq/L
PL [6]: 139.4 mg/dL
RALB [6]: 3 g/dL
TBIL [6]: 0.002 mg/dL
TC [6]: 70.6 mg/dL
TG [6]: 103.2 mg/dL
TP [6]: 5.6 g/dL
gamma-GTP [6]: 2.2 IU/L
A/G [7]: 1.2
ALP [7]: 1412.8 IU/L
ALT [7]: 37.4 IU/L
AST [7]: 66.6 IU/L
BUN [7]: 18.2 mg/dL
CRE [7]: 0.2 mg/dL
Ca [7]: 10.4 mg/dL
Cl [7]: 107.4 meq/L
DBIL [7]: 0 mg/dL
GLC [7]: 199 mg/dL
IP [7]: 6.4 mg/dL
K [7]: 4.3 meq/L
LDH [7]: 135.6 IU/L
Na [7]: 141.6 meq/L
PL [7]: 134 mg/dL
RALB [7]: 3.1 g/dL
TBIL [7]: 0.006 mg/dL
TC [7]: 65.4 mg/dL
TG [7]: 121 mg/dL
TP [7]: 5.7 g/dL
gamma-GTP [7]: 2 IU/L
A/G [8]: 1.2
ALP [8]: 1019.8 IU/L
ALT [8]: 34.6 IU/L
AST [8]: 58.2 IU/L
BUN [8]: 19.2 mg/dL
CRE [8]: 0.2 mg/dL
Ca [8]: 10.8 mg/dL
Cl [8]: 106.8 meq/L
DBIL [8]: 0 mg/dL
GLC [8]: 191 mg/dL
IP [8]: 6.2 mg/dL
K [8]: 4 meq/L
LDH [8]: 115.8 IU/L
Na [8]: 142.8 meq/L
PL [8]: 142.4 mg/dL
RALB [8]: 3.2 g/dL
TBIL [8]: 0.008 mg/dL
TC [8]: 77.4 mg/dL
TG [8]: 136.4 mg/dL
TP [8]: 5.9 g/dL
gamma-GTP [8]: 1.6 IU/L

Reference: ChEMBL document CHEMBL3885861, “Open TG-GATES”
